Results on 53 molecules are retold here after patent US20260209218A1, “3-PHENYLQUINAZOLINONES AS NOVEL ANTI-CANCER THERAPY” (HELMHOLTZ ZENTRUM MÜNCHEN - DEUTSCHES FORSCHUNGSZENTRUM FÜR …, priority 2022, published 2026).

Molecules are shown by their SMILES.

Usually EC50 stands for the concentration giving half of the maximal effect. For orientation: microsomal CLint means a measure of how fast metabolising enzymes remove a compound, apart from limits set by blood flow. A high value points to faster metabolism.

The first data set deals with T1, hFSP1 (Homo sapiens, UniProt Q9BRQ8).
T1 construct: expressed in transfected cells; host or cells: Gpx4 KO isogenic fibroblasts (Pfa1, mouse) overexpressing hFSP1
T1 sequence (Q9BRQ8 1-373): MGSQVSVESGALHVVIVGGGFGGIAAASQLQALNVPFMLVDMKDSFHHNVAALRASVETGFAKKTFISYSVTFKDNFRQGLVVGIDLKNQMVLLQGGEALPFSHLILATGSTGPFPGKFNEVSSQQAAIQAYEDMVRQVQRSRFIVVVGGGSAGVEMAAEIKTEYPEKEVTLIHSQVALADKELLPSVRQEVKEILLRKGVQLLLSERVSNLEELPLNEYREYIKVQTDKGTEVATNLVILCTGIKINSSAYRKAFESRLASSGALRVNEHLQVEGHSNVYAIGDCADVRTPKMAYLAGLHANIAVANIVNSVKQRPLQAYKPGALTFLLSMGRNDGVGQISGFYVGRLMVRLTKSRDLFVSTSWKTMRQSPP
Description: Dose-response of screening hits, cell survival by Aquabluer in hFSP1 GPX4 KO cells. Type of data set: cell-based. Conditions: FSP1 overexpressing cells lacking GPX4. The procedure:
To identify new small molecule inhibitors that induce ferroptosis in FSP1 overexpressing cells lacking GPX4, hFSP1 GPX4 KO as well as FSP1 GPX4 wild type (WT) isogenic fibroblasts were screened using a subtractive high throughput screening (HTS) approach. As such, both cell lines were plated in parallel and screened against HMGU libraries at a fixed concentration of 10 μM. Cell survival was evaluated using the LIVE/DEAD assay Aquabluer. The percentage (%) of viable cells was determined for both wild type (WT) and knockout (KO) cell lines. Hits were considered as compounds that induce ferroptosis in KO but not in WT cells. Subsequently, positive hits were assayed in a dose-response manner to establish EC50 values of respective compounds (see Table 2).
Consider `Cc1nc2cc(F)c(F)cc2c(=O)n1-c1ccc(NC(=O)Cc2ccc(C(F)(F)F)cc2)cc1` [Compound 74], for which the EC50 was less than 1000 nM.
Turning to `COc1cccc(CC(=O)Nc2ccc(-n3c(C)nc4ccccc4c3=O)cc2C)c1` [Compound 28], the concentration giving a half-maximal response (EC50) is more than 1000 nM.
For the molecule `COc1cc(C(=O)Nc2cccc(-n3c(C)nc4ccccc4c3=O)c2)cc(OC)c1OC` [Compound 6], the EC50 was less than 1000 nM.
`Cc1ccccc1CC(=O)Nc1ccc(-n2c(C)nc3ccccc3c2=O)cc1` [Compound 16]: the EC50 is more than 1000 nM.
Turning to `Cc1cc(-n2c(C)nc3ccccc3c2=O)ccc1NC(=O)Cc1ccccc1Cl` [Compound 30], the EC50 is more than 1000 nM.
On to `COc1ccc(CC(=O)Nc2ccc(-n3c(C)nc4ccccc4c3=O)cc2)c(Cl)c1` [Compound 31], for which the 50% effective concentration (EC50) was less than 1000 nM.
As for `COc1cc(C(=O)Nc2ccc(-n3c(C)nc4ccccc4c3=O)cc2)cc(OC)c1OC` [Compound 3], the EC50 is more than 1000 nM.
`COc1cc(CC(=O)Nc2ccc(-n3c(C(F)F)nc4ccccc4c3=O)cc2)cc(OC)c1OC` [Compound 41]: the 50% effective concentration (EC50) is more than 1000 nM.
As to `COc1ccc(CC(=O)Nc2ccc3nc(C)n(-c4ccc(F)cc4)c(=O)c3c2)cc1OC` [Compound 11], the concentration for a half-maximal effect (EC50) was more than 1000 nM.
For the molecule `Cc1nc2ccccc2c(=O)n1-c1ccc(NC(=O)Cc2ccc(Cl)cc2)cc1` [Compound 18], the EC50 was less than 1000 nM.
Same read-out and setting: in the case of `COc1cc(CC(=O)Nc2ccc(-n3c(C)nc4sccc4c3=O)cc2)cc(OC)c1OC` [Compound 69] it was less than 1000 nM; in that of `COc1ccc(CC(=O)Nc2ccc(-n3c(C)nc4ccccc4c3=O)cc2C)cc1Cl` [Compound 33], less than 1000 nM.
On to `COc1cc(CC(=O)Nc2ccc(-n3c(CF)nc4ccccc4c3=O)cc2)cc(OC)c1OC` [Compound 42], for which the 50% effective concentration (EC50) is less than 1000 nM.
On to `Cc1ccc(CC(=O)Nc2ccc(-n3c(C)nc4ccccc4c3=O)cc2)cc1` [Compound 14], for which the EC50 was less than 1000 nM.
On the same count and under the same terms, in the case of `Cc1cccc(CC(=O)Nc2ccc(-n3c(C)nc4ccccc4c3=O)cc2)c1` [Compound 15] it was less than 1000 nM.
As for `Cc1nc2ccccc2c(=O)n1-c1ccc(NS(=O)(=O)Cc2ccccc2)cc1` [Compound 72], the EC50 was more than 1000 nM.
On the same count and under the same terms, in the case of `COc1cc(CC(=O)Nc2ccc(-n3c(C)nc4ccccc4c3=O)cc2C)cc(OC)c1OC` [Compound 9] it was less than 1000 nM; in that of `COc1cc(CC(=O)Nc2ccc(-n3c(C(F)(F)F)nc4ccccc4c3=O)cc2)cc(OC)c1OC` [Compound 40], less than 1000 nM; in that of `Cc1nc2ccccc2c(=O)n1-c1ccc(NC(=O)Cc2ccc(F)cc2)cc1` [Compound 17], more than 1000 nM.
`Cc1nc2cc(F)c(F)cc2c(=O)n1-c1ccc(NC(=O)Cc2ccc3c(c2)CCC3)cc1` [Compound 77]: the EC50 is less than 100 nM.
Take `Cc1nc2cc(F)c(F)cc2c(=O)n1-c1ccc(NC(=O)Cc2cc(C(F)(F)F)cc(C(F)(F)F)c2)cc1` [Compound 86]: the EC50 was less than 100 nM.
On to `Cc1cccc(CC(=O)Nc2ccc(-n3c(C)nc4ccccc4c3=O)cc2C)c1` [Compound 22], for which the EC50 was more than 1000 nM.
As for `Cc1ccccc1CC(=O)Nc1ccc(-n2c(C)nc3ccccc3c2=O)cc1C` [Compound 23], the EC50 is more than 1000 nM.
Same read-out and setting: the figure for `COc1cc(CC(=O)Nc2ccc(-n3c(C)nc4cnccc4c3=O)cc2)cc(OC)c1OC` [Compound 49] is more than 1000 nM; for `Cc1ccc(CC(=O)Nc2ccc(-n3c(C)nc4ccccc4c3=O)cc2C)cc1` [Compound 21] it is more than 1000 nM.
With `Cc1cc(-n2c(C)nc3ccccc3c2=O)ccc1NC(=O)Cc1c(F)cccc1Cl` [Compound 32], the EC50 is less than 1000 nM.
For `COc1ccc(CC(=O)Nc2ccc(-n3c(C)nc4ccccc4c3=O)cc2C)c(Cl)c1` [Compound 34], the EC50 was less than 1000 nM.
For the molecule `Cc1nc2cc(F)c(F)cc2c(=O)n1-c1ccc(NC(=O)Cc2cccnc2)cc1` [Compound 84], the EC50 is more than 1000 nM.
Turning to `CCOc1ccc(CC(=O)Nc2ccc(-n3c(C)nc4ccccc4c3=O)cc2C)cc1` [Compound 12], the EC50 was less than 1000 nM.
As for `COc1cccc(CC(=O)Nc2ccc(-n3c(C)nc4ccccc4c3=O)cc2)c1` [Compound 8], the concentration for a half-maximal effect (EC50) is more than 1000 nM.
In the case of `Cc1cc(CC(=O)Nc2ccc(-n3c(C)nc4cc(F)c(F)cc4c3=O)cc2)cc(C)c1C` [Compound 75], the EC50 is less than 100 nM.
As for `COc1ccc(CC(=O)Nc2ccc(-n3c(C)nc4ccccc4c3=O)cc2)cc1` [Compound 4], the EC50 is more than 1000 nM.
Still for that read-out and setting: in the case of `COc1ccc(CC(=O)Nc2ccc(-n3c(C)nc4ccccc4c3=O)cc2C)cc1` [Compound 25] it was more than 1000 nM; in that of `Cc1nc2ccccc2c(=O)n1-c1ccc(NC(=O)Cc2c(F)cccc2Cl)cc1` [Compound 27], less than 1000 nM.
Turning to `COc1cc(CC(=O)Nc2ccc(-n3c(CO)nc4ccccc4c3=O)cc2)cc(OC)c1OC` [Compound 71], the EC50 was more than 1000 nM.
Consider `Cc1cc(-n2c(C)nc3ccccc3c2=O)ccc1NC(=O)Cc1ccc(Cl)cc1` [Compound 26], for which the EC50 is less than 1000 nM.
In the case of `COc1ccc(CC(=O)Nc2cccc(-n3c(C)nc4ccccc4c3=O)c2)cc1` [Compound 5], the half-maximal effective concentration (EC50) is more than 1000 nM.
With `Cc1nc2cc(F)c(F)cc2c(=O)n1-c1ccc(NC(=O)Cc2ccccc2)cc1` [Compound 82], the concentration giving a half-maximal response (EC50) was less than 1000 nM.
Turning to `COc1cc(CC(=O)Nc2ccc(-n3c(C)nc4ccncc4c3=O)cc2)cc(OC)c1OC` [Compound 50], the EC50 is more than 1000 nM.
Regarding `Cc1cc(-n2c(C)nc3ccccc3c2=O)ccc1NC(=O)Cc1ccc(F)cc1` [Compound 24], the concentration giving a half-maximal response (EC50) was more than 1000 nM.
On the same count and under the same terms, the figure for `CCC(C(=O)Nc1ccc(-n2c(C)nc3ccccc3c2=O)cc1)c1ccccc1` (stereo not drawn) [Compound 19] is less than 1000 nM; for `Cc1nc2cc(F)c(F)cc2c(=O)n1-c1ccc(NC(=O)Cc2cc(F)c(F)c(F)c2)cc1` [Compound 76] it is less than 1000 nM; for `Cc1nc2ccccc2c(=O)n1-c1ccc(NC(=O)Cc2ccccc2Cl)cc1` [Compound 20] it is more than 1000 nM.
Turning to `Cc1nc2cc(F)c(F)cc2c(=O)n1-c1ccc(NC(=O)Cc2ccccn2)cc1` [Compound 83], the EC50 is more than 1000 nM.
Turning to `Cc1cc(-n2c(C)nc3ccccc3c2=O)ccc1NC(=O)Cc1ccccc1F` [Compound 29], the EC50 is more than 1000 nM.
As for `Cc1nc2ccccc2c(=O)n1-c1ccc(NC(=O)Cc2ccc3c(c2)CCC3)cc1` [Compound 64], the EC50 is less than 100 nM.
With `COc1cc(CC(=O)Nc2cnc(-n3c(C)nc4ccccc4c3=O)cn2)cc(OC)c1OC` [Compound 63], the EC50 is more than 1000 nM.
For `Cc1nc2ccccc2c(=O)n1-c1ccc(N(C)S(=O)(=O)Cc2ccccc2)cc1` [Compound 73], the 50% effective concentration (EC50) is more than 1000 nM.
The same measure, in the same setting: the figure for `COc1cc(CC(=O)Nc2ccc(-n3c(C)nc4cc(F)c(F)cc4c3=O)cc2)cc(OC)c1OC` [Compound 46] is less than 100 nM; for `COc1ccc(CC(=O)Nc2ccc(-n3c(C)nc4ccccc4c3=O)cc2)cc1Cl` [Compound 7] it is less than 1000 nM.
Regarding `CCOc1cc(C(=O)Nc2ccc(-n3c(C)nc4ccccc4c3=O)cc2)cc(OCC)c1OCC` [Compound 10], the EC50 is less than 1000 nM.
Same read-out and setting: in the case of `Cc1cc(CC(=O)Nc2ccc(-n3c(C)nc4cc(F)c(F)cc4c3=O)cc2)cc(C)n1` [Compound 85] it was more than 1000 nM; in that of `CCOc1ccc(CC(=O)Nc2ccc(-n3c(C)nc4ccccc4c3=O)cc2)cc1` [Compound 2], more than 1000 nM.

Test system in a further data set: not listed separately
In words: Microsomal stability, mouse liver microsomes. It counts as in vitro ADME. Conditions: Balb/c, pH 7.4, 0.42 mg microsomal protein per ml, 37° C., five time points over 40 minutes. The protocol: (§1) The objective of this study was to determine metabolic stability of 4 test articles and reference compounds in human and mouse liver microsomes at five time points over 40 minutes using HPLC-MS. Metabolic stability is defined as the percentage of parent compound lost over time in the presence of a metabolically active test system.
(§2) Microsomal incubations were carried out in 96-well plates in 5 aliquots of 30 μL each (one for each time point). Liver microsomal incubation medium comprised of phosphate buffer (100 mM, pH 7.4), MgCl2 (3.3 mM), NADPH (3 mM), glucose-6-phosphate (5.3 mM), glucose-6-phosphate dehydrogenase (0.67 units/ml) with 0.42 mg of liver microsomal protein per ml. In the control reactions, the NADPH-cofactor system was substituted with phosphate buffer. Test compounds (2 μM, final solvent concentration 1.6%) were incubated with microsomes at 37° C., shaking at 100 rpm. Five time points over 40 minutes were analyzed. The reactions were stopped by adding 5 volumes of acetonitrile with internal standard to incubation aliquots, followed by protein sedimentation by centrifuging at 5500 rpm for 5 minutes. Each reaction was performed in duplicates. Supernatants were analyzed using the HPLC system coupled with a tandem mass spectrometer.
(§3) The elimination constant (kel), half-life (t1,2), and intrinsic clearance (Clint) were determined in a plot of In(AUC) versus time, using linear regression analysis:^1
In general terms: Microsomes from liver hold many membrane-bound enzymes, among them those of drug oxidation.
`Cc1nc2cc(F)c(F)cc2c(=O)n1-c1ccc(NC(=O)Cc2ccc(C(F)(F)F)cc2)cc1` [Compound 74] returned a microsomal CLint at 2 μM of 7 µL/min/mg.
`Cc1nc2cc(F)c(F)cc2c(=O)n1-c1ccc(NC(=O)Cc2ccccc2)cc1` [Compound 82] showed a microsomal CLint at 2 μM of 15 µL/min/mg.

Test system in another data set: not listed separately
Description: Microsomal stability, human liver microsomes. It counts as in vitro ADME. Conditions: pH 7.4, 0.42 mg microsomal protein per ml, 37° C., five time points over 40 minutes. The procedure:
as §1, §2, §3
In turn, `Cc1nc2cc(F)c(F)cc2c(=O)n1-c1ccc(NC(=O)Cc2ccc(C(F)(F)F)cc2)cc1` [Compound 74] displayed a microsomal CLint at 2 μM of 7 µL/min/mg.
The same measure, in the same setting: in the case of `Cc1nc2cc(F)c(F)cc2c(=O)n1-c1ccc(NC(=O)Cc2ccccc2)cc1` [Compound 82] it was 4 µL/min/mg.
